Experimental data published in patent US20210169871A1, “PHARMACEUTICAL COMPOSITIONS WITH REDUCED TERT-BUTANOL LEVELS” (TARVEDA THERAPEUTICS, INC., priority 2018, published 2021).
Marks after values point to notes of the source that are not given here.

Assays:
[1] = pH-dependent lactone / open ring carboxylic acid equilibrium in solution; format: physicochemical
Description: In solution, SDC-TRAP-0063 contains a lactone ring at pH-dependent equilibrium with the corresponding open chain carboxylic acid form. At high pH (above pH of around 9) the equilibrium shifts toward an open ring carboxylic acid form and at low pH it shifts toward the closed ring lactone form.
During the manufacturing process, SDC-TRAP-0063 is converted to SDC-TRAP-0063 Sodium, which is the dominant form at pH above approximately 9.3. SDC-TRAP-0063 Sodium drug product is aseptically manufactured as a sterile-filtered solution that is lyophilized. […] There is minimal impact from annealing or secondary drying modifications on TBA level in SDC-TRAP-0063 Sodium drug product.

[2] = Stability of SDC-TRAP-0063 sodium with added excipients
[3] = Residual TBA in lyophilized drug product by gas chromatography (GC-HS); format: physicochemical; parameters: key to Residual TBA: TBA weight percentage in dry powder
Method: SDC-TRAP-0063 synthesized in Example 1 was dissolved in an alkaline co-solvent system comprising 30% (by volume) tert-butanol (TBA) and water to obtain a drug solution. Various polyols, such as PEG, glycerol and propylene glycol (PG), were added to the drug solution in vials prior to the standard lyophilization cycle (freezing→annealing→primary drying→secondary drying). Dry powder drug products comprising SDC-TRAP-0063 sodium were obtained. TBA weight percentages in the dry powders were measured by gas chromatography (GC-HS) (Table 1).

[4] = pH, testing of lyophilized drug product; format: physicochemical
[5] = Residual moisture of lyophilized drug product; format: physicochemical; details: 100 mg/mL, 30% TBA, 4% PEG 400; Standard cycle (Table 2)
[6] = Residual TBA in lyophilized drug product by gas chromatography (GC-HS); format: physicochemical; parameters: key: TBA weight percentage in dry powder; details: 100 mg/mL
[7] = 100 mg/mL, 15% TBA, 3% PEG 400, NaOH 5.5 g/100 g (Table 3)
[8] = 100 mg/mL, 15% TBA, 6% Mannitol (Table 4)
[9] = 100 mg/mL, 30% TBA, 1% glycerol, standard lyophilization cycle (Table 1)
[10] = 100 mg/mL, 30% TBA, 2% PG, standard lyophilization cycle (Table 1)
[11] = 100 mg/mL, 30% TBA, 2% glycerol, standard lyophilization cycle (Table 1)
[12] = 100 mg/mL, 30% TBA, 3% PEG 400, NaOH 5.5 g/100 g (Table 3)
[13] = 100 mg/mL, 30% TBA, 3% PEG 400, standard lyophilization cycle (Table 1)
[14] = 100 mg/mL, 30% TBA, 3% glycerol, Standard cycle (Table 2)
[15] = 100 mg/mL, 30% TBA, 3.5% PEG 400, Standard cycle (Table 2)
[16] = 100 mg/mL, 30% TBA, 3.5% glycerol, Standard cycle (Table 2)
[17] = 100 mg/mL, 30% TBA, 4% PEG 400, BnOH 0.1 mg/vial, NaOH 5.5 g/100 g (Table 3)
[18] = 100 mg/mL, 30% TBA, 4% PEG 400, NaOH 5 g/100 g (Table 3)
[19] = 100 mg/mL, 30% TBA, 4% PEG 400, NaOH 5.5 g/100 g (Table 3)
[20] = 100 mg/mL, 30% TBA, 4% PEG 400, Standard cycle (Table 2)
[21] = 100 mg/mL, 30% TBA, 4% PEG 400, standard lyophilization cycle (Table 1)
[22] = 100 mg/mL, 30% TBA, 4% PEG 1000 (Table 4)
[23] = 100 mg/mL, 30% TBA, 4% PEG 2000 (Table 4)
[24] = 100 mg/mL, 30% TBA, 4% PEG 4000 (Table 4)
[25] = 100 mg/mL, 30% TBA, 4% PG, standard lyophilization cycle (Table 1)
[26] = 100 mg/mL, 30% TBA, 4% glycerol, Standard cycle (Table 2)
[27] = 100 mg/mL, 30% TBA, 4% glycerol, standard lyophilization cycle (Table 1)

With `CCc1c2c(nc3ccc(OC(=O)N4CCC(CCn5ccc6cc(-n7c(O)nnc7-c7cc(C(C)C)c(O)cc7O)ccc65)CC4)cc13)-c1cc([C@@](O)(CC)C(=O)[O-])c(CO)c(=O)n1C2.[Na+]` [SDC-TRAP-0063 sodium, Sodium (S)-2-(2-((4-(2-(5-(3-(2,4-dihydroxy-5-isopropylphenyl)-5-hydroxy-4H-1,2,4-triazol-4-yl)-1H-indol-1-yl)ethyl)piperidine-1-carbonyl)oxy)-12-ethyl-8-(hydroxymethyl)-9-oxo-9,11-dihydroindolizino[1,2-b]quinolin-7-yl)-2-hydroxybutanoate] the “pH above which SDC-TRAP-0063 Sodium is the dominant form” value ([1]; manufacturing process) was “approximately 9.3”, the “Stability with PEG-400 addition” value ([2]; PEG-400 added as excipient) was “no impact on the stability” and the “Stability with propylene glycol addition” value ([2]; propylene glycol added as excipient) was “faster decay”.
In the case of `CCc1c2c(nc3ccc(OC(=O)N4CCC(CCn5ccc6cc(-n7c(O)nnc7-c7cc(C(C)C)c(O)cc7O)ccc65)CC4)cc13)-c1cc3c(c(=O)n1C2)COC(=O)[C@]3(O)CC` [SDC-TRAP-0063, (S)-4,11-diethyl-4-hydroxy-3,14-dioxo-3,4,12,14-tetrahydro-1H-pyrano[3′,4′:6,7]indolizino[1,2-b]quinolin-9-yl 4-(2-(5-(3-(2,4-dihydroxy-5-isopropylphenyl)-5-hydroxy-4H-1,2,4-triazol-4-yl)-1H-indol-1-yl)ethyl)piperidine-1-carboxylate], the “Residual TBA” value [3, 7] is reported as 3.3%, the “Residual TBA” value [3, 8] is reported as 6.6% and the “Residual TBA” value ([3]; 100 mg/mL, 30% TBA, 0% PEG 400, 0% glycerol, Standard cycle, average (Table 2)) is reported as 7% avg. For the same compound, the “Residual TBA” value ([3]; 100 mg/mL, 30% TBA, 0% PEG 400, BnOH 0 mg/vial, NaOH 0 g/100 g, average (Table 3)) was 7% avg, the “Residual TBA” value ([3]; 100 mg/mL, 30% TBA, 0% PEG 1000, 0% PEG 2000, 0% PEG 4000, 0% Mannitol, average (Table 4)) was 7% avg and the “Residual TBA” value [3, 9] was 7.1%. The “Residual TBA” value [3, 10] was 4.1%, the “Residual TBA” value [3, 11] was 5.2% and the “Residual TBA” value [3, 12] was 4.1%. For the same compound, the “Residual TBA” value [3, 13] was 3.6%, the “Residual TBA” value [3, 14] was 3.8% and the “Residual TBA” value [3, 15] was 3.3%. For the same compound, the “Residual TBA” value [3, 16] was 3.3%, the “Residual TBA” value ([3]; 100 mg/mL, 30% TBA, 4% PEG 400, 5% Mannitol (Table 5)) was 0.54 and the “Residual TBA” value ([3]; 100 mg/mL, 30% TBA, 4% PEG 400, 7.5% Mannitol (Table 5)) was 1.36. For the same compound, the “Residual TBA” value ([3]; 100 mg/mL, 30% TBA, 4% PEG 400, 10% Mannitol (Table 5)) was 2.22, the “Residual TBA” value [3, 17] was 2.4% and the “Residual TBA” value [3, 18] was 1.9%. The “Residual TBA” value [3, 19] was 2.2%, the “Residual TBA” value [3, 20] was 2.7% and the “Residual TBA” value [3, 21] was 2.0%. For the same compound, the “Residual TBA” value [3, 22] was 2.3%, the “Residual TBA” value [3, 23] was 2.2% and the “Residual TBA” value [3, 24] was 2.3%. The “Residual TBA” value [3, 25] was 1.5%, the “Residual TBA” value [3, 26] was 1.8% and the “Residual TBA” value [3, 27] was 1.2%. The “Residual TBA” value ([3]; 100 mg/mL, 30% TBA, 5% PEG 400, 5% Mannitol (Table 5)) was 0.11, the “Residual TBA” value ([3]; 100 mg/mL, 30% TBA, 5% PEG 400, 7.5% Mannitol (Table 5)) was 0.26 and the “Residual TBA” value ([3]; 100 mg/mL, 30% TBA, 5% PEG 400, 10% Mannitol (Table 5)) was 0.74. The “Residual TBA” value ([3]; 100 mg/mL, 30% TBA, 6% PEG 400, 5% Mannitol (Table 5), below the limit of quantitation of the method) was 0.05*, the “Residual TBA” value ([3]; 100 mg/mL, 30% TBA, 6% PEG 400, 7.5% Mannitol (Table 5), below the limit of quantitation of the method) was 0.09* and the “Residual TBA” value ([3]; 100 mg/mL, 30% TBA, 6% PEG 400, 10% Mannitol (Table 5)) was 0.16. The “Residual TBA with 4% PEG-400” value ([3]; 4% of PEG-400) was 2.5-2.7%, the “Residual TBA” value ([3]; pre-lyophilization solution 100 mg/mL, 30% TBA, 0% PEG 400, 0% glycerol, 0% PG, standard lyophilization cycle, average) was 7% avg and the pH [4, 7] was 10.0. The pH ([4]; 100 mg/mL, 15% TBA, 4% Mannitol (Table 4)) was 9.8, the pH [4, 8] was 9.8 and the pH ([4]; 100 mg/mL, 30% TBA, 0% PEG 400, 0% glycerol, Standard cycle (Table 2)) was 10.1-10.3. The pH ([4]; 100 mg/mL, 30% TBA, 0% PEG 400, BnOH 0 mg/vial, NaOH 0 g/100 g (Table 3)) was 10.1-10.3, the pH ([4]; 100 mg/mL, 30% TBA, 0% PEG 1000, 0% PEG 2000, 0% PEG 4000, 0% Mannitol (Table 4)) was 10.1-10.3 and the pH [4, 9] was 10.2. For the same compound, the pH [4, 10] was 10.2, the pH [4, 11] was 10.2 and the pH [4, 12] was 9.9. It also gave a pH [4, 13] of 10.1, a pH ([4]; 100 mg/mL, 30% TBA, 3% glycerol, No secondary drying (Table 2)) of 10.1 and a pH [4, 14] of 10.1. For the same compound, the pH ([4]; 100 mg/mL, 30% TBA, 3.5% PEG 400, No secondary drying (Table 2)) was 10.1, the pH [4, 15] was 10.0 and the pH [4, 16] was 10.1. It also gave a pH [4, 17] of 10.0, a pH [4, 18] of 9.5 and a pH [4, 19] of 9.9. It also gave a pH [4, 20] of 10.1, a pH [4, 21] of 10.1 and a pH [4, 22] of 9.7. The pH [4, 23] was 9.9, the pH [4, 24] was 9.8 and the pH [4, 25] was 10.1. For the same compound, the pH [4, 26] was 10.1, the pH [4, 27] was 10.2 and the pH ([4]; pre-lyophilization solution 100 mg/mL, 30% TBA, 0% PEG 400, 0% glycerol, 0% PG, standard lyophilization cycle) was 10.1-10.3. The “Residual Moisture” value [5] was 0.26%, the “pH above which equilibrium shifts toward open ring carboxylic acid form” value [1] was “around 9” and the “Residual TBA” value ([6]; 15% TBA, 4% Mannitol (Table 4)) was 6.0%. For the same compound, the “Residual TBA” value ([6]; 30% TBA, 3% glycerol, No secondary drying (Table 2)) was 4.0%, the “Residual TBA” value ([6]; 30% TBA, 3.5% PEG 400, No secondary drying (Table 2)) was 3.2% and the Solubility in water (Solubility in water) was “does not have good solubility in water”. The “Stability profile with 4% PEG-400” value ([2]; 4% of PEG-400) was “stability profile is acceptable” and the “Stability profile with glycerol as excipient” value ([2]; glycerol as excipient, compared with PEG-400) was “slightly worse stability profile”.
